System: cyclamen (cultivar: Dressy Scarlet) seedling
Assay: Growth of root tubers at cut root ends of seedlings in solid media
Assay type: in vivo
Procedure: A cyclamen (cultivar: Dressy Scarlet) seed was immersed in an ethyl alcohol aqueous solution having an ethyl alcohol concentration of 70 wt % for 10 seconds and in a sodium hypochlorite solution having an effective chlorine concentration of 1 wt % for 10 minutes to sterilize the surface of the seed. Thereafter, this seed was washed in sterilized water 3 times to remove the sodium hypochlorite from the surface of the seed. This was sown in an MS solid medium containing 30 g/l of sucrose and 6 g/l of agar under a germ-free condition and cultured at a temperature of 20° C. under weak light for 30 days to be germinated and rooted.
The end portions of the roots of the above germinated and rooted cyclamen seedling were cut off with a scalpel, and the seedling was planted in the following solid media. As the media, a large number of experimental plots were prepared by adding NAA and BA as phytohormones to the ⅓ MS medium in concentrations shown in Tables 1 to 3 and further adding 30 to 90 g/l of sucrose. 6 g/l of agar was added to all of the media which were then sterilized in an autoclave to prepare media having a pH of 7.0. 10 ml of each of the solid media was placed in a 50 ml culture test tube. The stationary culture of the seedling planted in each of the media was carried out at 20° C. under weak light for a certain number of days to grow root tubers at the end portions of its roots.

[1] = sucrose 30 g/l, BA 1.0 mg/l, NAA 0.05 mg/l, 30-th day
[2] = sucrose 30 g/l, BA 10.0 mg/l, NAA 0.00 mg/l, 30-th day
[3] = sucrose 30 g/l, BA 10.0 mg/l, NAA 0.01 mg/l, 30-th day
[4] = sucrose 30 g/l, BA 10.0 mg/l, NAA 0.05 mg/l, 30-th day
[5] = sucrose 50 g/l, BA 0.1 mg/l, NAA 0.00 mg/l, 30-th day
[6] = sucrose 50 g/l, BA 0.1 mg/l, NAA 0.01 mg/l, 30-th day
[7] = sucrose 50 g/l, BA 0.1 mg/l, NAA 0.05 mg/l, 30-th day
[8] = sucrose 50 g/l, BA 1.0 mg/l, NAA 0.00 mg/l, 30-th day
[9] = sucrose 50 g/l, BA 1.0 mg/l, NAA 0.01 mg/l, 30-th day
[10] = sucrose 50 g/l, BA 1.0 mg/l, NAA 0.05 mg/l, 30-th day
[11] = sucrose 50 g/l, BA 10.0 mg/l, NAA 0.00 mg/l, 30-th day
[12] = sucrose 50 g/l, BA 10.0 mg/l, NAA 0.01 mg/l, 30-th day
[13] = sucrose 50 g/l, BA 10.0 mg/l, NAA 0.05 mg/l, 30-th day
[14] = sucrose 70 g/l, BA 0.1 mg/l, NAA 0.01 mg/l, 30-th day
[15] = sucrose 70 g/l, BA 0.1 mg/l, NAA 0.05 mg/l, 30-th day
[16] = sucrose 70 g/l, BA 1.0 mg/l, NAA 0.00 mg/l, 30-th day
[17] = sucrose 70 g/l, BA 1.0 mg/l, NAA 0.01 mg/l, 30-th day
[18] = sucrose 70 g/l, BA 1.0 mg/l, NAA 0.05 mg/l, 30-th day
[19] = sucrose 70 g/l, BA 10.0 mg/l, NAA 0.00 mg/l, 30-th day
[20] = sucrose 70 g/l, BA 10.0 mg/l, NAA 0.01 mg/l, 30-th day
[21] = sucrose 70 g/l, BA 10.0 mg/l, NAA 0.05 mg/l, 30-th day

## c1ccc(CNc2ncnc3[nH]cnc23)cc1 [BA, benzylaminopurine]
[1]
  Number of large root tubers (diameter of 1 mm or more): 6
  Total number of root tubers: 7
[2]
  Number of large root tubers (diameter of 1 mm or more): 6
  Total number of root tubers: 11
[3]
  Number of large root tubers (diameter of 1 mm or more): 5
  Total number of root tubers: 5
[4]
  Number of large root tubers (diameter of 1 mm or more): 4
  Total number of root tubers: 8
[5]
  Number of large root tubers (diameter of 1 mm or more): 1
  Total number of root tubers: 2
[6]
  Number of large root tubers (diameter of 1 mm or more): 0
  Total number of root tubers: 1
[7]
  Average number of root tubers (per a seedling): 2.8
  Number of large root tubers (diameter of 1 mm or more): 7
  Total number of root tubers: 14
Sucrose 50 g/l, BA 0.1 mg/l, NAA 0.05 mg/l, 50-th day
  Average number of root tubers (per a seedling): 2.8
[8]
  Number of large root tubers (diameter of 1 mm or more): 11
  Total number of root tubers: 16
[9]
  Number of large root tubers (diameter of 1 mm or more): 11
  Total number of root tubers: 16
[10]
  Average number of root tubers (per a seedling): 4.8
  Number of large root tubers (diameter of 1 mm or more): 4
  Total number of root tubers: 9
Sucrose 50 g/l, BA 1.0 mg/l, NAA 0.05 mg/l, 50-th day
  Average number of root tubers (per a seedling): 4.8
Sucrose 50 g/l, BA 2.0 mg/l, NAA 0.05 mg/l, 30-th day
  Average number of root tubers (per a seedling): 0.6
Sucrose 50 g/l, BA 2.0 mg/l, NAA 0.05 mg/l, 50-th day
  Average number of root tubers (per a seedling): 0.6
Sucrose 50 g/l, BA 5.0 mg/l, NAA 0.05 mg/l, 30-th day
  Average number of root tubers (per a seedling): 1.8
Sucrose 50 g/l, BA 5.0 mg/l, NAA 0.05 mg/l, 50-th day
  Average number of root tubers (per a seedling): 1.8
[11]
  Number of large root tubers (diameter of 1 mm or more): 6
  Total number of root tubers: 7
[12]
  Number of large root tubers (diameter of 1 mm or more): 3
  Total number of root tubers: 10
[13]
  Number of large root tubers (diameter of 1 mm or more): 4
  Total number of root tubers: 8
[14]
  Number of large root tubers (diameter of 1 mm or more): 4
  Total number of root tubers: 8
[15]
  Average number of root tubers (per a seedling): 4.4
  Number of large root tubers (diameter of 1 mm or more): 12
  Total number of root tubers: 14
Sucrose 70 g/l, BA 0.1 mg/l, NAA 0.05 mg/l, 50-th day
  Average number of root tubers (per a seedling): 4.4
[16]
  Number of large root tubers (diameter of 1 mm or more): 11
  Total number of root tubers: 16
[17]
  Number of large root tubers (diameter of 1 mm or more): 11
  Total number of root tubers: 19
[18]
  Average number of root tubers (per a seedling): 0.8
  Number of large root tubers (diameter of 1 mm or more): 9
  Total number of root tubers: 11
Sucrose 70 g/l, BA 1.0 mg/l, NAA 0.05 mg/l, 50-th day
  Average number of root tubers (per a seedling): 0.8
Sucrose 70 g/l, BA 2.0 mg/l, NAA 0.05 mg/l, 30-th day
  Average number of root tubers (per a seedling): 3.2
Sucrose 70 g/l, BA 2.0 mg/l, NAA 0.05 mg/l, 50-th day
  Average number of root tubers (per a seedling): 3.2
Sucrose 70 g/l, BA 5.0 mg/l, NAA 0.05 mg/l, 30-th day
  Average number of root tubers (per a seedling): 1.0
Sucrose 70 g/l, BA 5.0 mg/l, NAA 0.05 mg/l, 50-th day
  Average number of root tubers (per a seedling): 1.0
[19]
  Number of large root tubers (diameter of 1 mm or more): 3
  Total number of root tubers: 3
[20]
  Number of large root tubers (diameter of 1 mm or more): 3
  Total number of root tubers: 3
[21]
  Number of large root tubers (diameter of 1 mm or more): 8
  Total number of root tubers: 14
Sucrose 90 g/l, BA 0.1 mg/l, NAA 0.05 mg/l, 30-th day
  Average number of root tubers (per a seedling): 2.4
Sucrose 90 g/l, BA 0.1 mg/l, NAA 0.05 mg/l, 50-th day
  Average number of root tubers (per a seedling): 2.4
Sucrose 90 g/l, BA 1.0 mg/l, NAA 0.05 mg/l, 30-th day
  Average number of root tubers (per a seedling): 1.6
Sucrose 90 g/l, BA 1.0 mg/l, NAA 0.05 mg/l, 50-th day
  Average number of root tubers (per a seedling): 1.6
Sucrose 90 g/l, BA 2.0 mg/l, NAA 0.05 mg/l, 30-th day
  Average number of root tubers (per a seedling): 1.0
Sucrose 90 g/l, BA 2.0 mg/l, NAA 0.05 mg/l, 50-th day
  Average number of root tubers (per a seedling): 1.0
Sucrose 90 g/l, BA 5.0 mg/l, NAA 0.05 mg/l, 30-th day
  Average number of root tubers (per a seedling): 0.8
Sucrose 90 g/l, BA 5.0 mg/l, NAA 0.05 mg/l, 50-th day
  Average number of root tubers (per a seedling): 0.8

— patent US20050229276A1, “Method of producing cyclamen root tuber and method of proliferating cyclamen using the same” (Tokyo University of Agricultural, priority 2002, published 2005)
